Measured values reported in patent US5948406A, “Immunogens, antibodies formed therefrom, and coating antigens useful in a diacylhydrazine immunoassay method” (Rohm and Haas Company, priority 1997, dated 1999).
Values after ≈ are worked out from the molar mass of the structure shown.

How the values were obtained:
[1] = molecular target: Protein A purified IgG (rabbit antibodies to diacyl hydrazines); experiment: Indirect immunoassay (inhibition of purified IgG binding to RH2703-BSA coating antigen); settings: indirect assay; for IC50: RH2703-BSA coating antigen, absorbance at 410 nm; for Cross reactivity: IC50 of RH5992 / IC50 of analog x 100
Source text: (§1) As used herein the term "IC50 " is defined as the concentration of the inhibitor required to reduce the absorbance to one-half the absorbance measured when no inhibitor was present. This determination is accomplished by plotting the percent (%) activity remaining versus the concentration of the inhibitor where the percent (%) activity remaining is given by:
(§2) % activity=(Ao -Ai /Ao)×100
(§3) where Ao is the measured absorbance when no inhibitor is present and Ai is the measured absorbance at the i^th concentration of inhibitor. The percent inhibition is then given by the relationship 100-(% activity).
The percent cross reactivity was derived by the equation: […]
where IC50,5992 is the IC50 concentration for RH5992 as determined above and IC50,analog is the IC50 concentration of the analog, i.e., RH2703, RH2651, and RH0345.
(§4) Sensitivity in ng is calculated from the concentration of the inhibitor determined from regression analysis of the standard deviations of the replicate analyses of the standard concentrations as described in the equation: […]
(§5) where S is the sensitivity in ng, Yint is the Y-intercept of the regression line from the standard deviations of the replicate analyses in absorbance units, m is the slope of the regression line in absorbance units per ng/ml and V is the volume of sample applied to the microtiter plate in ml.
RH2703-BSA was used as the coating antigen. The concentration required to give a readable response (0.3-0.5 absorbance units @ 410 nm) in the presence of the minimum quantity of antigen (RH2703) was optimized in the presence of a constant amount of protein A purified IgG (10 μl of a 20 μg/ml solution, 100 ng/well) by a checkerboard type assay (see Voller et al, Bull of World Health Organization, 53, 35 (1976)). The concentration of the Protein A purified IgG had been previously optimized in the presence of a constant amount of coating antigen (RH2703-BSA, 100 μl of a 10 μg/ml solution) to give a readable response to the minimum amount of RH5992.
Antibody concentration was optimized to be approximately 20 μg/ml (100 ng per micro well) and the coating antigen was optimized to be 25 ng/ml or 2.5 ng per micro well. When converted to a molar basis and assuming a hapten/protein binding ratio of 55, the hapten is in a three-fold molar excess of the IgG added.
The percent inhibition for RH2703, RH2651, RH5992, RH0345 and RH2485 were determined to the protein IgG in the presence of the optimized concentration of RH2703-BSA coating antigen. Each test substance was assayed at seven concentrations ranging from no test substance 0 ng/ml to 1000 ng/ml. The assay at each concentration was replicated seven times. Antigen negative and antibody negative wells provided negative controls while KLH/anti-KLH wells were used as positive controls.
Serial dilutions of the test substance stock solutions were made with coating buffer containing 0.1% TWEEN 20 polysorbate to give 1000 ng/ml, 100 ng/ml, 10 ng/ml, 1 ng/ml, 0.1 ng/ml, and 0.01 ng/ml assay concentrations. Coating buffer w/0.1% TWEEN 20 polysorbate was used as the 0 ng/ml assay concentration. The test substance assay concentrations (190 μl each) were incubated with 10 μl of the protein A IgG ([…]) for one hour at room temperature. After the incubation period, 100 μl of the test substance-IgG mixture was transferred to the appropriate microtiter well. The microtiter wells had been previously coated with the optimized concentration of RH2703-BSA and the excess protein binding sites were blocked with 0.3 ml of a 1% BSA solution in coating buffer. The plates were incubated for an additional hour at room temperature.
After the second incubation the plates were washed and goat, anti-rabbit immunoglobulin conjugated to alkaline phosphatase (0.6 mg reconstituted with 1 ml 50% glycerol and subsequently diluted with 1:5000 with blocking solution Pierce Chemical Co) was added. The plates were incubated, washed and PNPP substrate added as described in Example 5. […]

[2] = test system: ^2651 IgG (coating antibody); experiment: Direct assay (competition with 2651-HRP for immobilized ^2651 IgG coating antibody); assay type: binding, rabbit; settings: for IC50: 2651-HRP label, absorbance at 450 nm; for Cross reactivity, RH2651: relative to RH2651; for Cross reactivity, RH5992: relative to RH5992
Source text: as §1, §2, §3, §4, §5
A microplate was coated with ^2651 IgG. Starting with column 1, 100 μl of 10 μg/ml ^2651 IgG were added to each well and 1:2 serial dilutions made across the plate. The plate was sealed and stored at 4° C. until ready to use. After emptying, the plate was washed with 0.01% Tween 20 in PBS and blocked with 1% BSA in PBS for about 1 hour at room temperature. After blocking, the plate was emptied and 150 μl PBS added to each well. Then 50 μl of 2651-HRP dilutions were added down the plate starting with 10 μg/ml and continuing with 1:2 dilutions down the plate. After a 1 hour room temperature incubation, the plate was washed as before and 150 μl 1-Step® Slow-TMB (peroxidase substrate from Pierce Chemical Co.) was added to each well. After one hour development, 150 μl of 1N H2 SO4 was added to stop the reaction and the absorbance of each well measured at 450 nm with the Dynatech MR5000 Microplate Reader. Controls included wells with no coating antibody and wells in which no 2651-HRP were added. A ^2651 IgG coating antibody concentration of 0.625 μg/ml and a 2561-HRP concentration of 1.25 μg/ml were determined to be the optimum concentration for use with 1-Step® Slow-TMB substrate.
The wells of a microplate were coated with 100 μl each of 0.625 μg/ml ^2651 IgG. One row was left uncoated as a control. The plate was kept at 4° C. overnight. The following day the plate was washed with 0.01% Tween 20 polysorbate in PBS and blocked with 1% BSA in PBS for at least 30 minutes. Standard solutions of RH5992, RH2651, RH2703, and RH2485 were made from 1 mg/ml stock solutions. Standard solutions of RH0345 were prepared from a 0.1 ng/ml, 0.5 ng/ml, 1 ng/ml, 5 ng/ml, 10 ng/ml, 50 ng/ml, and 100 ng/ml. After the blocking lo solution was emptied, 150 μl of the standards were added to the appropriate wells. For the zero control 150 μl of PBS was added. After a 45 minute incubation at room temperature, 50 μl of 1.25 μg/ml 2651-HRP were added to each well and the plate agitated to mix the contents. […] After incubation for 45 minutes at room temperature, the plate was washed as before and 150 μl 2651-HRP was added to each well and the plate agitated to mix the contents. […] After incubation for 45 minutes at room temperature, the plate was washed as before and 150 μl Step 1® Slow TMB added to each well. After 2 hours at room temperature, 150 μl 1N H2 SO4 was added to each well and the absorbance read at 450 nm with the Dynatech MR5000 Microplate Reader.
FIG. 16a illustrates a typical curve generated from the assay. The linear portion of the curve is visualized between 0.01 ng/ml and 10 ng/ml. A typical standard curve in the linear range of the assay is illustrated by FIG. 16b using inverse absorbances to generate a positive slope. The limit of detection was calculated as 0.096 ng/ml and the sensitivity calculated as 0.005 ng for RH5992.

SMILES	IC50 [1]	Cross reactivity [1]	IC50 [2]	Cross reactivity, RH2651 [2]	Cross reactivity, RH5992 [2]
CC(C)(C)N(NC(=O)c1ccc(Cl)cc1)C(=O)c1ccccc1 [RH0345]	6.5 ng/mL	9%	16.94 ng/mL (≈ 0.0512 µM)	6.9%	21.5%
COc1cccc(C(=O)NN(C(=O)c2cc(C)cc(C)c2)C(C)(C)C)c1C [RH2485]	0.05 ng/mL		4.64 ng/mL (≈ 0.0126 µM)	25%	78.4%
Cc1cc(C)cc(C(=O)N(NC(=O)c2ccc(C(=O)O)cc2)C(C)(C)C)c1 [RH2651]	1.59 ng/mL	38%	1.17 ng/mL (≈ 0.00318 µM)	100%	311%
Cc1cc(C)cc(C(=O)N(NC(=O)c2ccc(CC(=O)O)cc2)C(C)(C)C)c1 [RH2703]	1.13 ng/mL	54%	2.10 ng/mL (≈ 0.00549 µM)	56%	173%
CCc1ccc(C(=O)NN(C(=O)c2cc(C)cc(C)c2)C(C)(C)C)cc1 [RH5992]	0.61 ng/mL	100%	3.64 ng/mL (≈ 0.0103 µM)	32%	100%
